For the experiment, the target named is T1, hROMK (hKir1.1) (Homo sapiens, UniProt P48048).
T1 construct: expressed in transfected cells
T1 sequence (P48048 1-391): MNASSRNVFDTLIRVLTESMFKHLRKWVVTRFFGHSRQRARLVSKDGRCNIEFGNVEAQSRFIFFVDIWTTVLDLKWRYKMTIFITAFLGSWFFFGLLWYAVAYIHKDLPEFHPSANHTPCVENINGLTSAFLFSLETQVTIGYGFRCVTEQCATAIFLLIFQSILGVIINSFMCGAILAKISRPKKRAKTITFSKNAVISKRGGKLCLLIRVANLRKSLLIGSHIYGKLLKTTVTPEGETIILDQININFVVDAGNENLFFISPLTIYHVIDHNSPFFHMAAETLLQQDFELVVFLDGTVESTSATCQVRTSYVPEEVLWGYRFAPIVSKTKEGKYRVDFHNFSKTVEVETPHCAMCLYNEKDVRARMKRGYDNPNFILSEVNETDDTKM
Nature of the experiment: Thallium Flux Assay. The class given is cell-based. Particulars: HEK293 cells stably expressing hROMK (hKir1.1). How it is done:
Cell Culture Conditions—HEK293 cells stably expressing hROMK (hKir1.1) were grown at 37° C. in a 10% CO2 humidified incubator in complete growth media: Dulbecco's Modified Eagle Medium supplemented with non-essential amino acids, Penicillin/Streptomycin/Glutamine, G418 and FBS. At >80% confluency, aspirate the media from the flask and rinse with 10 mL Calcium/Magnesium-free PBS. Add 5 mL of 1× trypsin (prepared in Ca/Mg Free PBS) to T-225 flask and return flask to 37° C./CO2 incubator for 2-3 minutes. To dislodge the cell, gently bang the side of the flask with your hand. Triturate the cells completely and then transfer the cells to 25 mL complete media. Centrifuge at 1,500 rpm for 6 min followed by resuspension in complete growth media and determine cell concentration. For typical re-seeding, 4E6 cells/T-225 flask will attain >80% confluency in 4 days. Under ideal growth conditions and appropriate tissue culture practices, this cell line is stable for 40-45 passages.
FluxOR Kit Components (Invitrogen F10017)
• FluxOR™ Reagent (Component A) • FluxOR™ Assay Buffer (Component B)—10× Concentrate • PowerLoad™ Concentrate (Component C)—100× Concentrate • Probenecid (Component D)—Lyophilized sample is kept at −20° C. Water soluble, 100× after solubilization in 1 mL water. Store at 4° C. • FluxOR™ Chloride-free Buffer (Component E)—5× Concentrate • Potassium sulfate (K2SO4) Concentrate (Component F)—125 mM in water. Store at 4° C. • Thallium sulfate (Tl2SO4) Concentrate (Component G)—50 mM in water. Store at 4° C. • DMSO (dimethyl sulfoxide, Component H)—1 mL (100%) Reagent Preparation: FluxOR Working Solutions • 1000× FluxOR™ Reagent: Reconstitute a vial of component A in 100 μl DMSO; Mix well; Store 10 μl aliquots at −20° C. • 1× FluxOR™ Assay Buffer: Dilute Component B 10-fold with water; Adjust pH to 7.4 with Hepes/NaOH; Filter and store at 4° C. • Probenecid/Assay Buffer: 100 mL of 1× FluxOR™ Assay Buffer; 1 mL of reconstituted component D; Store at 4° C. • Loading Buffer (per microplate): 10 μl 1000× FluxOR™ Reagent; 100 μl component C; 10 mL Probenecid/Assay Buffer • Compound Buffer (per microplate): 20 mL Probenecid/Assay Buffer; 0.3 mM ouabain (10 mM ouabain in water can be stored in amber bottle/aluminum foil at room temperature); Test compound • 1× FluxOR™ Chloride-Free Buffer: Prepare 1× working solution in water. Can be stored at room temperature • Stimulant Buffer (prepared at 5× final concentration in 1× FluxOR™Chloride-Free Buffer): 7.5 mM Thallium sulfate and 0.75 mM Potassium sulfate (to give a final assay concentration of 3 mM Thallium/0.3 mM Potassium). Store at 4° C. when not in use. If kept sterile, this solution is good for months.
Assay Protocol—The ROMK channel functional thallium flux assay is performed in 384 wells, using the FLIPR-Tetra instrument. HEK-hKir1.1 cells are seeded in Poly-D-Lysine microplates and kept in a 37° C.-10% CO2 incubator overnight. On the day of the experiment, the growth media is replaced with the FluxOR™ reagent loading buffer and incubated, protected from light, at ambient temperature (23-25° C.) for 90 min. The loading buffer is replaced with assay buffer± test compound followed by 30 min incubation at ambient temperature, where the Thallium/Potassium stimulant is added to the microplate.
• 1. Seed HEK-hKir1.1 cells (50 μl at 20,000 cells/well) in 384-well PDL coated Microplates • 2. Allow cells to adhere overnight in humidified 37° C./10% CO2 incubator • 3. Completely remove cell growth media from microplate and replace with 25 μl loading buffer • 4. Incubate Microplate at room temperature, protected form light, for 90 min • 5. Remove loading buffer and replace with 25 μl 1× Assay Buffer±test compound. • 6. Incubate microplate at room temperature, protected from light, for 30 min • 7. At FLIPR-Tetra 384: Add stimulant (Thallium/Potassium) solution to microplate and monitor fluorescence. Excitation=400 nm, Emission=460 & 580 nm. Collect data for ˜10 min. […]

The structures appear in SMILES notation.

By IC50 is commonly meant the point on the concentration scale where inhibition reaches its midpoint. High values mean weaker potency, low ones greater potency. In turn, `Cc1c([C@@H](O)CN2CC3C(C2)C3NC(=O)c2ccc(C#N)cn2)ccc2c1COC2=O` (stereo partly drawn) [Example 33, 5-Cyano-N-(3-((R)-2-hydroxy-2-(4-methyl-1-oxo-1,3-dihydroisobenzofuran-5-yl)ethyl)-3-azabicyclo[3.1.0]hexan-6-yl)picolinamide] returned an IC50 of 60 nM. That is a double-digit nanomolar value. With `Cc1c([C@@H](O)CN2CCC(NC(=O)c3ccc(-n4cnnn4)cc3)CC2)ccc2c1COC2=O` [Example 34, (R)-N-(1-(2-Hydroxy-2-(4-methyl-1-oxo-1,3-dihydroisobenzofuran-5-yl)ethyl)piperidin-4-yl)-4-(1H-tetrazol-1-yl)benzamide], the IC50 was 230 nM.

In turn, `Cc1c([C@@H](O)CN2CCC(NC(=O)c3ccc(-c4ccon4)cc3)CC2)ccc2c1COC2=O` [Example 35, (R)-N-(1-(2-Hydroxy-2-(4-methyl-1-oxo-1,3-dihydroisobenzofuran-5-yl)ethyl)piperidin-4-yl)-4-(isoxazol-3-yl)benzamide] showed an IC50 of 60 nM. Turning to `Cc1c([C@@H](O)CN2CCC(NC(=O)c3cccc(-n4cnnn4)c3)CC2)ccc2c1COC2=O` [Example 36, (R)-N-(1-(2-Hydroxy-2-(4-methyl-1-oxo-1,3-dihydroisobenzofuran-5-yl)ethyl)piperidin-4-yl)-3-(1H-tetrazol-1-yl)benzamide], the IC50 came to 450 nM.

With `Cc1c([C@@H](O)CN2CCC(NC(=O)c3ccc(-n4cccn4)cc3)CC2)ccc2c1COC2=O` [Example 37, (R)-N-(1-(2-Hydroxy-2-(4-methyl-1-oxo-1,3-dihydroisobenzofuran-5-yl)ethyl)piperidin-4-yl)-4-(1H-pyrazol-1-yl)benzamide], the IC50 came to 100 nM. Turning to `Cc1c([C@@H](O)CN2CC[C@@H](NC(=O)c3ccc(C#N)cn3)[C@H](F)C2)ccc2c1COC2=O` [Example 38, 5-Cyano-N-((trans)-3-fluoro-1-((R)-2-hydroxy-2-(4-methyl-1-oxo-1,3-dihydroisobenzofuran-5-yl)ethyl)piperidin-4-yl)picolinamide], the IC50 was determined as 1000 nM. In the case of `Cc1c([C@@H](O)CN2CCC(NC(=O)c3ccc(-c4cc[nH]n4)cc3)CC2)ccc2c1COC2=O` [Example 39, (R)-N-(1-(2-Hydroxy-2-(4-methyl-1-oxo-1,3-dihydroisobenzofuran-5-yl)ethyl)piperidin-4-yl)-4-(1H-pyrazol-3-yl)benzamide], the IC50 was 310 nM. Take `Cc1nc(C(=O)NC2CCN(C[C@H](O)c3ccc4c(c3C)COC4=O)CC2)ccc1C#N` [Example 41, (R)-5-Cyano-N-(1-(2-hydroxy-2-(4-methyl-1-oxo-1,3-dihydroisobenzofuran-5-yl)ethyl)piperidin-4-yl)-6-methylpicolinamide]: the IC50 came to 70 nM. Molecule `Cc1c([C@@H](O)CN2CCC(NC(=O)c3ncc(C#N)c4ccccc34)CC2)ccc2c1COC2=O` [Example 42, (R)-4-Cyano-N-(1-(2-hydroxy-2-(4-methyl-1-oxo-1,3-dihydroisobenzofuran-5-yl)ethyl)piperidin-4-yl)isoquinoline-1-carboxamide] displayed an IC50 of 100 nM. With `Cc1c([C@@H](O)CN2CCC(NC(=O)c3ccc(C#N)cc3F)CC2)ccc2c1COC2=O` [Example 45, (R)-4-Cyano-2-fluoro-N-(1-(2-hydroxy-2-(4-methyl-1-oxo-1,3-dihydroisobenzofuran-5-yl)ethyl)piperidin-4-yl)benzamide], half-maximal inhibition (IC50) required 450 nM. Compared with the last molecule, the IC50 is about 4.5-fold higher. `Cc1c([C@@H](O)CN2CCC(NC(=O)c3ccc(-n4cnnn4)nc3)CC2)ccc2c1COC2=O` [Example 49, (R)-N-(1-(2-Hydroxy-2-(4-methyl-1-oxo-1,3-dihydroisobenzofuran-5-yl)ethyl)piperidin-4-yl)-6-(1H-tetrazol-1-yl)nicotinamide] displayed an IC50 of 150 nM.

In the case of `Cc1c([C@@H](O)CN2CCC(C)(NC(=O)c3ccc(-n4cnnn4)nc3)CC2)ccc2c1COC2=O` [Example 51, (R)-N-(1-(2-Hydroxy-2-(4-methyl-1-oxo-1,3-dihydroisobenzofuran-5-yl)ethyl)-4-methylpiperidin-4-yl)-6-(1H-tetrazol-1-yl)nicotinamide], inhibition was half-maximal at 390 nM (IC50). `Cc1c([C@@H](O)CN2CCC(NC(=O)c3ccc(-n4cnnn4)cn3)CC2)ccc2c1COC2=O` [Example 53, (R)-N-(1-(2-Hydroxy-2-(4-methyl-1-oxo-1,3-dihydroisobenzofuran-5-yl)ethyl)piperidin-4-yl)-5-(1H-tetrazol-1-yl)picolinamide] displayed a concentration for half-maximal inhibition (IC50) of 190 nM.

`Cc1c([C@@H](O)CN2CCC3(CC2)CCN3C(=O)c2ccc(-n3cnnn3)cn2)ccc2c1COC2=O` [Example 55, (R)-5-(2-(1-(5-(1H-Tetrazol-1-yl)picolinoyl)-1,7-diazaspiro[3.5]nonan-7-yl)-1-hydroxyethyl)-4-methylisobenzofuran-1(3H)-one]: half-maximal inhibition (IC50) was put at 530 nM. This IC50 is about 2.8-fold higher than that of the molecule before.

`Cc1c([C@@H](O)CN2CC3C(C2)C3NC(=O)c2ccc(-n3cnnn3)cn2)ccc2c1COC2=O` (stereo partly drawn) [Example 56, N-(3-((R)-2-Hydroxy-2-(4-methyl-1-oxo-1,3-dihydroisobenzofuran-5-yl)ethyl)-3-azabicyclo[3.1.0]hexan-6-yl)-5-(1H-tetrazol-1-yl)picolinamide]: the midpoint of inhibition, the IC50, lay at 710 nM. For `COc1cc(C(=O)NC2CCN(C[C@H](O)c3ccc4c(c3C)COC4=O)CC2)ccc1C#N` [Example 57, (R)-4-Cyano-N-(1-(2-hydroxy-2-(4-methyl-1-oxo-1,3-dihydroisobenzofuran-5-yl)ethyl)piperidin-4-yl)-3-methoxybenzamide] the value was 320 nM; for `Cc1cc(C(=O)NC2CCN(C[C@H](O)c3ccc4c(c3C)COC4=O)CC2)ncc1-n1cnnn1` [Example 59, (R)-N-(1-(2-Hydroxy-2-(4-methyl-1-oxo-1,3-dihydroisobenzofuran-5-yl)ethyl)piperidin-4-yl)-4-methyl-5-(1H-tetrazol-1-yl)picolinamide], 90 nM; for `Cc1c([C@@H](O)CN2CCC(C)(NC(=O)c3ccc(-n4cnnn4)cn3)CC2)ccc2c1COC2=O` [Example 60, (R)-N-(1-(2-Hydroxy-2-(4-methyl-1-oxo-1,3-dihydroisobenzofuran-5-yl)ethyl)-4-methylpiperidin-4-yl)-5-(1H-tetrazol-1-yl)picolinamide], 180 nM. Molecule `Cc1c([C@@H](O)CN2CC[C@H](NC(=O)c3ccc(-n4cnnn4)cn3)C2)ccc2c1COC2=O` [Example 61, N-((S)-1-((R)-2-Hydroxy-2-(4-methyl-1-oxo-1,3-dihydroisobenzofuran-5-yl)ethyl)pyrrolidin-3-yl)-5-(1H-tetrazol-1-yl)picolinamide] had an IC50 of 230 nM.

For the origin of these results see US9777002B2, “Inhibitors of the renal outer medullary potassium channel” (Merck Sharp & Dohme Corp., priority 2012, dated 2017).
